Source: patent publication US20150344978A1, “NICOTINE RESISTANT MICROORGANISMS” (priority 2014, published 2015)

Columns and labels:
X-PRESS yeast strain = test system: X-PRESS yeast strain
Experimental: (§1) In the method, the X-PRESS yeast strain was subjected to a number of selection cycles to generate nicotine resistance. First, the X-PRESS yeast strain was cultured in liquid media (YP medium containing yeast extract (5 g/L); peptone (10 g/L)) to which 1% w/v (10 mg/ml) nicotine was added for 72 hr at 27° C. with shaking 200 rpm. […] After 72 hr, 100 μl of the culture was applied to a 1% w/v nicotine YP agar plate and allowed to grow on the plate at 27° C. for another 72 hr. In the next step, a single colony was inoculated into a 1.5% w/v nicotine YP medium solution and incubated for another 72 hr and the entire process was repeated. This process was repeated multiple times with the concentration of nicotine being increased in increments of 0.5% w/v at each cycle. […] In FIGS. 3A & 3B, the yeast strains were inoculated onto a nicotine-containing culture plate (nicotine 50 mg/ml, yeast extract 5 g/L, peptone 10 g/L and agar 15 g/L) and incubated at 27° C. for 3 days.

[1] = test system: nicotine resistant yeast strain
Experimental: as §1
To ensure the stability of the nicotine resistance trait, an additional 20 generations of the resistant strain were cultured in the 7.5% w/v nicotine nutrient solution. […] This nicotine resistant Saccharomyces cerevisiae yeast strain was deposited on under the terms of the Budapest Treaty on the International Recognition of the Deposit of Microorganisms for the Purposes of Patent Procedure at the American Type Culture Collection (ATCC) in Manassas, Va., USA and bears the Patent Accession No. ______.

With `CN1CCCC1c1cccnc1` (centres unmarked) [nicotine] the “effect on growth of X-PRESS yeast in liquid YP medium” value (X-PRESS yeast strain; 1% w/v (10 mg/ml) nicotine, 72 hr, 27° C., shaking 200 rpm) was “inhibited the growth rate, but did not kill the yeast”, the “growth of X-PRESS yeast on nicotine-containing culture plate” value (X-PRESS yeast strain; nicotine 50 mg/ml, yeast extract 5 g/L, peptone 10 g/L, agar 15 g/L, 27° C., 3 days) was “No yeast growth could be observed” and the “survival of X-PRESS yeast colonies” value (X-PRESS yeast strain; nicotine concentration of 7.5%) was “no surviving yeast colonies”. The “growth of nicotine resistant strain in medium” value [1] was “capable of growing”, the “growth of nicotine resistant yeast” value [1] was “still able to grow” and the “growth of nicotine resistant yeast on nicotine-containing culture plate” value [1] was “grew well”. For the same compound, the “less ethanol production expected” value (yeast; in the presence of 0.5% nicotine) was 21% and the “less sugar consumption by yeast” value (yeast; nicotine 5 mg/ml added into fermentation solution (FIG. 1)) was 21%.
